# Data reported in patent US4560748A, “Streptothricin-group compounds” (Ajinomoto Company Incorporated, priority 1982, dated 1985).
# Experiments:
# LEWIS lung carcinoma [1] = assay: Effect on LEWIS lung carcinoma in BDF1 mice; type: in vivo, mouse; details: for Reduction of tumor size / I.L.S.: intraperitoneally daily for 1-10 days; for I.L.S.: increase in life span; for Antitumor activity: against LEWIS lung carcinoma in mouse; for Life prolongation effects compared with BLM: mouse suffered from LEWIS lung carcinoma
# Description: LEWIS lung carcinoma (1 mm^3) was transplanted subcutaneously into BDF1 mice. After 24 hours of the transplantation, AN-201(I), (II) and BLM were intraperitoneally injected daily for 1-10 days. Antitumor activity was indicated with a reduction in tumor size or with a increase in life span.
# LEWIS lung carcinoma [2] = details: reported for the known agent, cited from earlier work
# [3] = tested on: Bacillus subtilis ATCC 6633; assay: Antimicrobial activity (MIC), broth culture; type: cell-based; details: for MIC: ATCC6633, Bacillus subtilis ATCC 6633, 37° C., 20 hours; for Antimicrobial activity: against Bacillus subtilis ATCC 6633
# Description: (§1) Two ml portions of M3 -Medium (Bactoantibiotic Medium--Difico, 1.75%, pH 7.2) were placed into test tubes and heated at 120° C. for 10 minutes. Each test strain in Table 1 was inoculated into a batch of culture medium, and the inoculated batches were cultured with shaking at 30° C. for 20 hours to obtain seed culture broths. A 0.05 ml sample of each culture broth was inoculated into 20 ml of M3 -Medium containing […] or (II). The inoculates were cultured at 37° C. for 20 hours with shaking. Thereafter, the optical density of each resultant culture broth at 660 nm was determined, and the minimum inhibition concentration (MIC) of each broth was calculated, and is shown in Table 1.
# [4] = tested on: Escherichia coli K-12 ATCC 10798; assay: Antimicrobial activity (MIC), broth culture; type: cell-based; details: ATCC10798, 37° C., 20 hours
# Description: as §1
# [5] = tested on: Pseudomonas aeruginosa ATCC 10145; assay: Antimicrobial activity (MIC), broth culture; type: cell-based; details: ATCC10145, 37° C., 20 hours
# Description: as §1
# Sarcina lutia ATCC 93412 = assay: Antimicrobial activity (MIC), broth culture; type: cell-based; details: for MIC: Sarcina, ATCC93412, 20 h; for Antimicrobial activity: against Sarchina lutea ATCC 9341
# Description: as §1
# [6] = tested on: Staphylococcus aureus FDA 209 P; assay: Antimicrobial activity (MIC), broth culture; type: cell-based; details: for MIC: FDA209, Staphylococcus aureus FDA 209 P, 37° C., 20 hours; for Antimicrobial activity: against Streptococcus aureus FDA 209P
# Description: as §1
# Escherichia coli MP-2 = assay: Antimicrobial activity (MIC), broth culture; type: cell-based; details: MP2, 37° C., 20 hours
# Description: AN-201(I) and (II) can be assayed by determining anti-microbial activity to E. coli MP-2 (FERM-P 5432) (Agric. Biol. Chem., 43, 371, (1979)), which has permeability for high molecular compounds.
# as §1
# [7] = tested on: mouse fibroblast cell 3T3; assay: Number of injured cells, mouse fibroblast 3T3; type: cell-based; set-up: key: -: none of the cells injured; +: half of the cells injured; ++: about 2/3 of the cells injured; +++: almost all of the cells injured; details: 3 days
# Description: (§2) MEM Uldecco powder (DAI-NIPPON SEIYAKU) (13.45 g) was dissolved in 1 l of distilled water and 2 ml of 7.5% NaHCO3 solution was added to the solution. Then the solution was filtered through a Millipore filter (pore size: 0.22μ) and supplemented with 100 ml of germ-free blood serum. Into a micro test plate (Falcon), 0.15 ml portions of the culture medium thus prepared were placed. Then a 0.05 ml culture sample of previously cultured mouse fibroblast cell 3T3 or mouse fibroblast cell 3T3 transformed with Semian virus-40 (SV 3T3) was inoculated into each portion of the culture medium. Thereafter, the inoculated media were incubated in a CO2 gas incubator (concentration of CO2 gas: 7.0%) at 37° C. for 24 hours. Into the media AN-201(I) or (II) was added to contain 20 μg/ml, 40 μg/ml, 50 μg/ml or 60 μg/ml, and additional cultivation was carried out for 3 days. Number of injured cell in each medium was counted with an invert microscope using a Thama hematometer.
# [8] = tested on: mouse fibroblast cell 3T3 transformed with Semian virus-40 (SV 3T3); assay: Number of injured cells, SV 3T3 (transformed with Semian virus-40); type: cell-based; set-up: key: -: none of the cells injured; +: half of the cells injured; ++: about 2/3 of the cells injured; +++: almost all of the cells injured; details: 3 days
# Description: as §2
# ED50 on normal cells 3T3 = type: cell-based; details: mouse; normal 3T3 cells; 2 days; read-out: ED50 33T3(N)
# Description: (§3) Normal cells, 3T3 and SV-40-transformed 3T3 cells, (SV3T3) were cultured in Eagle's minimal essential medium supplemented with 10% calf serum, 5 μg/ml of cefazoline and 100 μg/ml of streptomycin at the initial cell concentration of 4×10^4 cells/2 cm^2 for 3T3 and 2×10^4 cells/2 cm^2 for SV3T3 at 37° C. in 7% CO2 incubator. After one day of cultivation old medium was removed from tissue culture plate and various concentrations of drug diluted with new medium were added to the Falcon tissue culture plate. After 2 days of cultivation, the cell density was measured and the value of ED50 was determined. N/T ratio was calculated from ED50 value of normal cell, 3T3, to transformed cell, SV3T3.
# SV3T3 = assay: ED50 on SV-40-transformed 3T3 cells and selective cytotoxic effect; type: cell-based, mouse; details: for Cytotoxicity compared with BLM: 3T3 cell transformed with SV-40; for Selective cytotoxic effect (N/T ratio): ED50 of normal cell 3T3 to transformed cell SV3T3, 2880 min; for IC50: Mus musculus, SV3T3, 48 h, SV-40-transformed 3T3 cells, 2 days, read-out: ED50 SV3T3(T); for Antitumor activity (selective cytotoxicity): against 3T3 cell transformed with SV-40
# Description: as §3
# [9] = tested on: mouse leukemia L 1210 cells; assay: Effect on L 1210 cell (relative multiplication number); type: cell-based; details: L1210, 120 h, 5 days, 0 μg/ml = 100; for activity at 10 µg/mL: 10 μg/ml; for activity at 20 µg/mL: 20 μg/ml; for activity at 40 µg/mL: 40 μg/ml; for activity at 50 µg/mL: 50 μg/ml; for activity at 60 µg/mL: 60 μg/ml
# Description: A 10.28 g sample of RPMI 1640 powder medium (DAI-NIPPON SEIYAKU) was dissolved into 1.0 liter distilled water and 1.0 g NaHCO3 was added to it. Then the solution was filtered through a Millipore filter (pore size: 0.22μ) and supplemented with 100 ml of germ-free blood serum. One ml portions of the culture medium thus prepared were placed into Falcon Multi Well aseptically. Then a 0.05 ml culture sample of mouse leukemia L 1210 cells previously cultured was inoculated into each batch of the culture medium, and a definite amount of purified AN-201(I) or (II) dissolved in the same medium was added simultaneously to the culture medium. Thereafter, the inoculated media were incubated in a CO2 gas incubator (concentration of CO2 gas: 7.0%) at […]. After 5 days incubation, the numbers of multiplied cells were counted under a microscope and the relative multiplication numbers obtained are shown in Table 4.
Compound,MIC [3] [µg/mL],Antimicrobial activity [3],MIC [4] [µg/mL],MIC [5] [µg/mL],MIC (Sarcina lutia ATCC 93412) [µg/mL],Antimicrobial activity (Sarcina lutia ATCC 93412),MIC [6] [µg/mL],Antimicrobial activity [6],MIC (Escherichia coli MP-2) [µg/mL],Number of Injured Cell ([7]; 20 μg/ml),Number of Injured Cell ([7]; 40 μg/ml),Number of Injured Cell ([7]; 50 μg/ml),Number of Injured Cell ([7]; 60 μg/ml),Number of Injured Cell ([8]; 20 μg/ml),Number of Injured Cell ([8]; 40 μg/ml),Number of Injured Cell ([8]; 50 μg/ml),Number of Injured Cell ([8]; 60 μg/ml),CC50 at 48 h (ED50 on normal cells 3T3) [µg/mL],Cytotoxicity compared with BLM (SV3T3),Selective cytotoxic effect (N/T ratio) (SV3T3),further results
"bleomycin [BLM, reference compound]",,,,,,,,,,,,,,,,,,,,,Reduction of tumor size (LEWIS lung carcinoma [1]; 5 mg/kg): 52-60%; Reduction of tumor size (LEWIS lung carcinoma [1]; 10 mg/kg): 65-80%; I.L.S. (LEWIS lung carcinoma [1]; 5 mg/kg): 100-110%; I.L.S. (LEWIS lung carcinoma [1]; 10 mg/kg): 119-124%; Antitumor activity (reported) (LEWIS lung carcinoma [2]; LEWIS lung carcinoma in mouse): notable antitumor activity; Chemotherapeutic coefficient (reported) (LEWIS lung carcinoma [2]): very high
CC(=O)NC(CCCNC(=O)CC(N)CCCNC(=O)CC(N)CCCN)CC(=O)NC1C(N=C2NC3C(=O)NCC(O)C3N2)OC(CO)C(OC(N)=O)C1O (centres unmarked) [AN-201(II)],1.5,positive,> 50,> 50,5,positive,2,positive,4,-,-,+,++,-,+,+++,+++,50,more strongly and selectively cytotoxic,3.3,IC50 (SV3T3): 15 µg/mL; Antitumor activity (selective cytotoxicity) (SV3T3): cytotoxic selectively; activity at 10 µg/mL [9]: 100%; activity at 20 µg/mL [9]: 80%; activity at 40 µg/mL [9]: 25%; activity at 50 µg/mL [9]: 0%; activity at 60 µg/mL [9]: 0%; Reduction of tumor size (LEWIS lung carcinoma [1]; 1 mg/kg): 50-57%; Reduction of tumor size (LEWIS lung carcinoma [1]; 3 mg/kg): 54-60%; Reduction of tumor size (LEWIS lung carcinoma [1]; 9 mg/kg): 74-85%; Antitumor activity (LEWIS lung carcinoma [1]): positive; I.L.S. (LEWIS lung carcinoma [1]; 1 mg/kg): 101-110%; I.L.S. (LEWIS lung carcinoma [1]; 3 mg/kg): 121-130%; I.L.S. (LEWIS lung carcinoma [1]; 9 mg/kg): 124-135%; Life prolongation effects compared with BLM (LEWIS lung carcinoma [1]): greater life prolongation effects
CC(=O)NC(CCCNC(=O)CC(N)CCCN)CC(=O)NC1C(N=C2NC3C(=O)NCC(O)C3N2)OC(CO)C(OC(N)=O)C1O (centres unmarked) [AN-201(I)],2.7,positive,> 50,> 50,5,positive,2,positive,20,-,-,+,++,-,+,+++,+++,55,more strongly and selectively cytotoxic,2.2,IC50 (SV3T3): 25 µg/mL; Antitumor activity (selective cytotoxicity) (SV3T3): cytotoxic selectively; activity at 10 µg/mL [9]: 100%; activity at 20 µg/mL [9]: 80%; activity at 40 µg/mL [9]: 30%; activity at 50 µg/mL [9]: 0%; activity at 60 µg/mL [9]: 0%; Reduction of tumor size (LEWIS lung carcinoma [1]; 9 mg/kg): 45-50%; Reduction of tumor size (LEWIS lung carcinoma [1]; 18 mg/kg): 50-65%; Antitumor activity (LEWIS lung carcinoma [1]): positive; I.L.S. (LEWIS lung carcinoma [1]; 9 mg/kg): 114-120%; I.L.S. (LEWIS lung carcinoma [1]; 18 mg/kg): 120-125%; Life prolongation effects compared with BLM (LEWIS lung carcinoma [1]): greater life prolongation effects
